Measured values taken from patent US20060270658A1, “Use of oxcarbazepine for the treatment of diabetic neuropathic pain and the improvement of sleep” (priority 2003, published 2006).

Key:
[1] = system: Patients suffering from diabetic neuropathic pain; assay: Clinical study in human diabetic neuropathic pain patients (double-blind, placebo-controlled, 112 days); assay type: in vivo; settings: 1800 mg/day total dosage
Description: FIG. 1 depicts the average VAS score (y-axis) during the last week of treatment of the clinical study described in Example 1. The darker area represents the scores obtained in the group of patients obtaining oxcarbazepine at a daily dosage of 1800 mg (N=68). The brighter area represents the score for the placebo group (N=76). FIG. 2 illustrates the average VAS score (y-axis) by week (x-axis) of the clinical study described in Example 1. The upper lines represents the score for the placebo group (N=76). The lower line represents the scores obtained in the group of patients obtaining oxcarbazepine at a daily dosage of 1800 mg (N=68). In a clinical study in a Caucasian patient population, a full double-blind treatment was conducted for a period of 112 days. Patients suffering from diabetic neuropathic pain obtained placebo or oxcarbazepine.

[2] = system: patients with neuropathic pain of diabetic origin; assay: Impact of oxcarbazepine on sleep in human diabetic neuropathic pain patients (daily sleep questionnaire); assay type: in vivo; settings: up to 1800 mg/day; for Awaken from sleep, % days during double-blind phase, mean (SD): P 0.02 vs placebo
Description: In a multicenter, placebo-controlled, double-blind, parallel-group study the efficacy of oxcarbazepine up to 1800 mg/day in patients with neuropathic pain of diabetic origin was evaluated. The study consisted of three phases: a pre-randomization screening phase (2 weeks); a double-blind treatment phase (18 weeks); and an open-label extension phase (52 weeks). The double-blind treatment phase was further divided into a titration period of 4 weeks, a maintenance period of 12 weeks, and a follow-up period of 2 weeks. Patients who met all inclusion criteria were randomized in a 1:1 ratio to receive either study medication or placebo during double-blind treatment (16 weeks). After randomization into the double-blind treatment phase, oxcarbazepine or placebo was initiated at 300 mg/day, and increased 3 days later to 300 mg twice a day (600 mg/day). After this, oxcarbazepine was titrated as tolerated up to a maximum target dose of 900 mg twice a day (1800 mg/day) in increments of 300 mg every 5 days over the 4-week titration period. During the remaining 12 weeks of the study (maintenance period), oxcarbazepine treatment remained at the dose reached by day 28. Patient response to the following three questions from the daily sleep questionnaire were used to assess disturbances of sleep over double-blind treatment: 1) Did your pain delay you in getting to sleep last night? 2) Did your pain awaken you from sleep more than one time last night? 3) Did you feel rested after sleep this morning?

[3] = difference did not achieve statistical significance

## NC(=O)N1c2ccccc2CC(=O)c2ccccc21 [Oxcarbazepine, 10-oxo-10, 11-dihydro-5H-dibenz[b,f]azepine-5-carboxamide]
[1]; Caucasian patient population, 112 days double-blind, p=0.0108
  average Visual Analog Scale (VAS) for pain severity score during the last week of double-blind treatment, versus placebo: statistically significantly superior to placebo
[1]; placebo group 39.7%, p=0.0003
  percentage of responders (those felt slightly, much, or very much improved): 73.2%
[2]; ITT population, n = 68
  Awaken from sleep, % days during double-blind phase, mean (SD): 31 (29) % days
[2]; ITT population, n = 68, listed as oxcarbazepine
  Awaken from sleep, % days during double-blind phase, mean (SD): 31 % days
[2]; ITT population, n = 68, P 0.09 vs placebo
  Delayed getting to sleep, % days during double-blind phase, mean (SD): 28 (31) % days
[2]; ITT population, n = 68, P 0.17 vs placebo
  Felt rested after sleep, % days during double-blind phase, mean (SD): 55 (34) % days
[2]; [3]
  proportion of patients experiencing delays in getting to sleep, in comparison with placebo: lower proportion
  proportion of patients who felt rested after sleep, in comparison with placebo: greater proportion
